In US7687472B2, “Methods and compositions for treating hyperglycemic, hyperlipidemic, or hyperinsulinemic disorders” (Ohio University, priority 2004, dated 2010):

Tests used:
[1] = system: Glut4; test: Glut4 translocation by immunostaining and confocal microscopy in 3T3-L1 adipocytes; assay type: cell-based; conditions: FIG. 3
Experimental: (§1) FIG. 3 illustrates induced Glut4 translocation. 3T3-L1 adipocytes were either uninduced, or induced by 1 μM insulin, or 30 μM 6Cl-α-TGQ. The treated cells were immunostained with an anti-Glut4 antibody followed with the secondary antibody (Fluorescein (FITC)-conjugated affinipure F(ad′)2 fragment Donkey anti-Mouse IgG). The cells were then mounted for microscopic visualization. The immunostained cells were visualized with a Zeiss LSM510 confocal microscope at wavelength of 488 nm for excitation and 520 nm for emission.
as §1, with “The” for “FIG. 3 illustrates induced Glut4 translocation. 3T3-L1 adipocytes were either uninduced, or induced by 1 μM insulin, or 30 μM 6Cl-α-TGQ. The”

[2] = system: 3T3-L1 preadipocytes; test: MDI-induced differentiation of 3T3-L1 preadipocytes into adipocytes, measured by glucose uptake; assay type: cell-based; conditions: MDI plus 20 μM compound; ten days after induction; FIG. 4
Experimental: FIG. 4 illustrates adipocyte differentiation induced by MDI. […] Ten days after the induction, cells were assayed for their respective ability to take up glucose from the media by a radioactive glucose uptake assay. Each sample (condition) was in triplicate. The concept that adipocyte differentiation can be indirectly measured by glucose uptake was based on the observation that only differentiated adipocytes can take up glucose through a Glut4-mediated pathway while undifferentiated preadipocytes cannot.
To determine the effective concentration of the compounds of Formula I, II, or III to use in preventing adipogenesis in vitro, undifferentiated preadipocytes are incubated either with a differentiation-induction cocktail, comprised of 3-isobutyl-1-methylxanthine, dexamethasone, and insulin (MDI); or with MDI plus the test compound. After about 10 days MDI induces differentiation, which is clearly visible as the change from fibroblast-like preadipocytes to round-shaped, fat vesicle-containing adipocytes. […]
Ten days after the induction, cells were assayed for their respective ability to take up glucose from the media by a standard radioactive glucose uptake assay. […] The adipocyte differentiation can be measured by glucose uptake because only differentiated adipocyte can take up glucose through Glut4-mediated pathway while undifferentiated preadipocytes cannot.

[3] = system: 3T3-L1 adipocytes; test: Glucose uptake ([3H] 2-deoxy-D-glucose) assay in 3T3-L1 adipocytes; assay type: cell-based; conditions: for glucose transport inducing activity compared with α-PGG: α-PGG 30 μM
Experimental: Glucose uptake activity in cells may be analyzed by measuring the uptake of 2-deoxy-D-[3H] glucose using a standard assay. Confluent 3T3-L1 adipocytes grown in 12-well plates are washed twice with serum-free DMEM and incubated with 1 mL of the same medium at 37° C. for 2 h. The cells are washed 3 times with Krebs-Ringer-Hepes (KRP) buffer and incubated with 0.9 mL KRP buffer at 37° C. for 30 min. Insulin (positive control) or the compounds of Formula I, II, or III (experimentals) are then added at pre-determined concentrations and adipocytes are incubated at 37° C. for 15 min. Glucose uptake is initiated by addition of 0.1 mL KRP buffer and 37 MBq/L 2-deoxy-D-[^3H] glucose and 1 mmol/L glucose as final concentrations. After 10 min, glucose uptake is terminated by washing the cells 3 times with cold PBS. The cells are lysed with 0.7 mL of 1% Triton X-100 at 37° C. for 20 min. The radioactivity retained by the cell lysates is determined by a scintillation counter. The dosage that induces the maximal glucose uptake can be selected among the experimental samples.
6Cl-α-TGQ and 6Cl-β-TGQ were synthesized as described above. α-TGQ was synthesized using methods analogous to the preparation of 6Cl-α-TGQ (Examples 1 and 2) starting from commercially available 6-deoxy-D-glucose. Alpha-pentagalloylglucose (α-PGG) was obtained. 3T3-L1 preadipocytes grown in 24-well plates were induced by MDI until they were differentiated into adipocytes. Adipocytes were washed twice with serum-free DMEM and incubated with 0.5 ml of the same medium in 10% C02 at 37 ° C. for 2 hours. The cells were washed 3 times with Kerbs-Ringer-HEPES (KRP) buffer (136 mM NaCl, 4.7 mM KCl, 1.25 mM CaCl2, 1.25 mM MgSO4 and 10 mM sodium phosphate buffer at pH 7.4) and then incubated with 0.45 ml KRP buffer at 37 ° C. for 30 minutes. Glucose transport inducing agents were individually added to the cells at predetermined concentrations and each condition was duplicated or triplicated, then the adipocytes were incubated at 37 ° C. for 15 minutes. Glucose uptake was initiated by the addition of 0.1 ml of KPR buffer supplemented with 1 μCi/ml [^3H] 2-deoxy-D-glucose and 1 mM cold glucose as the final concentration to the cells. After 10 min, the medium was aspirated and the plates were washed with ice-cold PBS three times to terminate the induced glucose uptake. The cells were lysed with 0.45 ml of 1% triton X-100 at 37 ° C. for 20 min. The radioactivity taken up by the cells was determined in a solution of 0.4 ml of the cell lysates and 5 ml of scintillation liquid using a scintillation counter (Beckman Instruments).
6Br-α-TGQ and 6Br-β-TGQ were chemically synthesized using a preparation analogous to the preparation of 6Cl-TGQ (Examples 1, 2 and 3) starting from commercially available 6-bromo-D-glucose. 6Cl-α-TGQ was synthesized as described above. Alpha-pentagalloylglucose (α-PGG) was obtained. Confluent 3T3-L1 adipocytes were purchased from ATCC and grown in 12-well plates are washed twice with serum-free DMEM and incubated with 1 mL of the same medium at 37° C. for 2 h. The cells are washed 3 times with Krebs-Ringer-Hepes (KRP) buffer and incubated with 0.9 mL KRP buffer at 37° C. for 30 min.
Glucose uptake was initiated by addition of 0.1 mL KRP buffer and 37 MBq/L 2-deoxy-D-[^3H] glucose and 1 mmol/L glucose as final concentrations, and the ^3H labeled glucose was then added to the cells for 15 min. […] The radioactivity retained by the cell lysates was determined by a scintillation counter. […]

[4] = system: 3T3-L1 preadipocytes; conditions: α-PGG used at 20 μM with MDI; cited from earlier work
[5] = system: Akt; test: Akt phosphorylation by Western blot in CHO-IR cells and 3T3-L1 adipocytes; assay type: cell-based; conditions: CHO-IR cells or 3T3-L1 adipocytes; anti-phosphorylated Akt antibody
Experimental: (§2) FIG. 6 illustrates that novel TGQ compounds stimulate IR and Akt phosphorylation in CHO-IR cells and Akt phosphorylation in 3T3-L1 fat cells. CHO-IR cells or 3T3-L1 adipocytes were induced under conditions as shown. Total protein was isolated from the cells and subjected SDS-PAGE and subsequently transferred to a […] membrane. The proteins on the membrane were detected by anti-phosphorylated IR or Akt antibodies. […] Thirty to 60 μg of total protein and the biotinylated protein marker was mixed with SDS sample buffer and heated at 95-100° C. for 5 minutes. Then, each sample and a marker were subjected to 8% SDS POLYACRYLAMIDE GEL ELECTROPHORESIS (SDS-PAGE). After electrophoresis, the proteins on the gel were transferred to a nitrocellulose. The nitrocellulose membrane was blocked, and then incubated with the desired primary antibody (specifically against either phosphorylated form of IR or Akt) overnight at 4° C. with gentle agitation. After overnight incubation, the membrane was washed, and then incubated with the HRP-conjugated secondary antibody for 1 hour at room temperature. Then, the membrane was washed, the proteins on the membrane were detected by a Western blotting LumiGLO system (Cell Signaling Tech, Inc) and finally visualized by exposing the membrane to an x-ray film in a cassette for a proper time, usually from 1 to 10 minutes.

[6] = system: IR; test: IR phosphorylation by Western blot in CHO-IR cells; assay type: cell-based; conditions: anti-phosphorylated IR antibody
Experimental: as §2

O=C(O[C@H]1O[C@H](CCl)[C@@H](OC(=O)c2cc(O)c(O)c(O)c2)[C@H](OC(=O)c2cc(O)c(O)c(O)c2)[C@H]1OC(=O)c1cc(O)c(O)c(O)c1)c1cc(O)c(O)c(O)c1 [6Cl-α-TGQ, 6-chloro-α-1,2,3,4-tetragallolyl-D-quinovopyranose]
Glut4 translocation to the cell membrane ([1]; 30 μM compound): induced Glut4 translocation to the cell membrane | inhibition of adipocyte differentiation [2]: inhibit adipocyte differentiation | more glucose transported than the insulin controls ([3]; 30 μM compound, insulin control 1 μM, FIG. 2): 10% | glucose transport activity compared with insulin ([3]; insulin 1 μM, FIG. 2): as active as insulin | glucose transport inducing activity compared with α-PGG ([3]; FIG. 2): more active than pentagalloyl-α-D-glucopyranose (α-PGG) | glucose transport inducing activity compared with α-PGG ([3]; FIG. 2, listed as 6Cl-α: TGQ): more active than α-PGG

CC1OC(OC(=O)c2cc(O)c(O)c(O)c2)C(OC(=O)c2cc(O)c(O)c(O)c2)C(OC(=O)c2cc(O)c(O)c(O)c2)C1OC(=O)c1cc(O)c(O)c(O)c1 (stereo not drawn) [α-TGQ]
glucose transport stimulatory activity ([3]; various concentrations): active

O=C(OC[C@H]1O[C@H](OC(=O)c2cc(O)c(O)c(O)c2)[C@H](OC(=O)c2cc(O)c(O)c(O)c2)[C@@H](OC(=O)c2cc(O)c(O)c(O)c2)[C@@H]1OC(=O)c1cc(O)c(O)c(O)c1)c1cc(O)c(O)c(O)c1 [α-PGG, pentagalloyl-α-D-glucopyranose]
inhibition of adipocyte differentiation (known) [4]: known to inhibit the differentiation

6-chloro-1,2,3,4-tetragalloyl-D-quinovopyranose [6Cl-β-TGQ]
inhibition of adipocyte differentiation [2]: inhibit adipocyte differentiation

insulin: the hormone which regulates glucose utilization; positive control
Glut4 translocation to the cell membrane ([1]; 1 μM insulin): induced Glut4 translocation to the cell membrane

6-chloro-1,2,3,4-tetragalloyl-D-quinovopyranose [6Cl-TGQ]
Glut4 translocation to the cell membrane ([1]; 30 μM compound): induced Glut4 translocation to the cell membrane | Akt phosphorylation [5]: can induce IR and Akt phosphorylation | IR phosphorylation [6]: can induce IR and Akt phosphorylation
